Values joined by “and” are separate entries in the source; they are usually repeats but may differ in a detail not shown here. Equal entries are not always repeated. One block for each compound: values may come before it.
Assays:
chymotrypsin [1] = experiment: Bentiromide test with stable isotope PABA, serum PABA ratio by GC/MS (Pancreatic Ratio); assay type: in vivo, human
Description: The abundance of PABA and PABA isotope of the type administered to the patient in the 0-time sample is determined and compared to the abundance of PABA (from cleavage of bentiromide) and isotope PABA in the second sample. After adjustment for differences in the abundance of the identical quantities of PABA isotope used for standardization placed in the assay, the value of PABA in the 0-time sample is subtracted from the abundance of the PABA in the second sample (a like correction is also applied to the PABA isotope of the type administered) and a ratio of natural PABA to PABA isotope of the type administered is then determined. Individuals with a ratio greater than 0.32 are considered normal, individuals with a ratio of 0.28-0.32 are considered indeterminate, individuals with a ratio of less than 0.28 are considered abnormal.
Pancreatic and small bowel function were simultaneously evaluated using a gas chromatographic mass spectrometric (GC/MS) method on serum samples. In this method, xylose absorption was quantitated using [^13 C]1 -xylose, a stable isotope of xylose. Absorption of p-aminobenzoic acid (PABA), released from bentiromide by the action of endogenous chymotrypsin, was compared to the absorption of stable isotope PABA (^13 C6), administered orally simultaneously with bentiromide. The ratio (Pancreatic Ratio) of bentiromide PABA to stable isotope PABA in 60-minute sera samples was determined and expressed as a fraction and quantitated relative to added 2,6[^2 H]2 -PABA.
A person presented with diarrhea and hyperthyroidism and was also noted to have significant steatorrhea (63 g fat/24 hours). The patient was further evaluated with standard serum D-xylose testing, which was abnormal (13 mg/dl, nl 20-40). […] The patient then was given the above GC/MS test. A 0-time 10 ml blood sample was taken; 6.7 mg of bentiromide was administered along with 2.0 mg of stable isotope PABA and 5 g D-xylose, and 8 fl. oz of Resource. Sixty minutes later, 10 ml of blood was drawn. The sera after clotting was collected and the PABA, [^13 C]6 -PABA and xylose were purified and assayed by GC/MS.
At 0-time, a blood sample was taken from all patients in the amount of 10 ml, yielding 4-6 ml of serum, an aliquot of which was analyzed by GC/MS for PABA content.
Bentiromide in the amount of 6.7 mg and stable isotope PABA ([^13 C]6 -PABA) in the amount of 2 mg was administered to normal patients and patients with various pancreatic injuries after Internal Review Board approval. After an overnight fast (nothing by mouth after midnight except water or coffee with cream), a 0-time blood sample was drawn. The patients then drank 8 oz. of Resource followed immediately (within less than five minutes) by the test solution comprising 6.7 mg bentiromide, 2 mg stable isotope PABA, and 5 grams of D-xylose dissolved in 30 cc (1 oz.) of water. Sixty minutes later, 10 mls of blood were drawn and the subjects dismissed.
Serum collected one hour after the test meal was analyzed by GC/MS for the ratio of natural PABA to stable isotope PABA. The simultaneous administration of stable isotope PABA with bentiromide corrects for variations in gastric emptying, intestinal absorption, renal function and interfering substances in serum.
Bentiromide and stable isotope PABA were administered as set forth in Example 2 to four groups of patients designated A, B, C, and D on the X axis of FIG. 1. The ratio of labelled (i.e. stable isotope PABA) to bentiromide PABA in sera at 60 minutes is shown on the Y axis.
Several types of columns are used in this analysis and these include a strong anion exchange column (SAX), a strong cation exchange column (SCX), and a C18 column. The SAX and SCX columns are prepared in disposable plastic columns containing 50 mg of each resin. Prior to use, the column is prepared by a column volume of methanol followed by four washings with four column volumes of water. […]

chymotrypsin [2] = conditions: cited from earlier work
[3] = human, in vivo, po
Description: The serum xylose test is one of the best non-invasive methods for diagnosing intestinal malabsorption. In this test, D-xylose, a five-carbon sugar not naturally present in the body or in foodstuffs, is given orally and an estimation of the increase in serum xylose content is carried out through colorimetric determination (CD) of non-glucose reducing sugars in serum. However, the test is occasionally misleading by giving both false positive and false negative results. Older xylose tests measured xylose in the urine. Problems with this test include the fact that the Roe and Rice method of D-xylose analysis is non-specific and cross-reacts partially with glucose. […] Furthermore, the test critically depends on complete emptying of the urinary bladder at five hours and on intact renal function.
An isotope dilution assay was developed for serum xylose using GC/MS to compare to the CD of serum xylose from a commercial diagnostic company to see if variations in the analysis itself may be a contributing cause to the misleading clinical results. Since GC/MS analysis relies on both column separation and mass identification, it is more specific for xylose determination than CD.

clinical = experiment: clinical; parameters: species or system human; conditions: in vivo
Source text: Xylose is purified for detection by GC/MS by the process shown in Example 7. The purification process involves rapid deproteination and two-hour derivatization. The analysis involves the examination of one specific ion (M/Z 417) of one specific anomeric peak. Because of natural anomers and possibly incomplete derivatization of carbohydrates, xylose may show several peaks on GC/MS. It is necessary to use a peak providing a linear assay. In the present assay, using a ten-meter column, xylose elutes at 6.6 minutes when the temperature is ramped from 80°-300° C. using helium gas at a head pressure of 50 psi. A second smaller peak elutes at 6.7 minutes. […]
The xylose is also measured in the second fluid sample by GC/MS. […] A value less than or equal to about 2.5 mg/dl is read as abnormal.
Pancreatic and small bowel function were simultaneously evaluated using a gas chromatographic mass spectrometric (GC/MS) method on serum samples. In this method, xylose absorption was quantitated using [^13 C]1 -xylose, a stable isotope of xylose. […] The ratio (Pancreatic Ratio) of bentiromide PABA to stable isotope PABA in 60-minute sera samples was determined and expressed as a fraction and quantitated relative to added 2,6[^2 H]2 -PABA. […]
17. Place supernatant fluid into autosampler vial and examine by GC/MS using ^13 C1 -xylose as a standard for quantitation The derivatized xylose has four peaks. […]

[4] = Alcoholic Pancreatitis (n = 4), serum one hour
[5] = Cystic Fibrosis (n = 16), serum one hour
[6] = Other Pancreatitis (n = 4), serum one hour

back exchange (boiling water): lack of reaction in boiling water
SMILES: [2H]c1c([2H])c(C(=O)O)c([2H])c([2H])c1N [Example 12, 4-aminobenzoic-2,3,5,6-[^2 H]4]
decomposition (hot dilute acid): extensive decomposition in hot dilute acid

Ratio in % of Natural PABA to Stable Isotope PABA (chymotrypsin [1]; [4]): 5 ± 6% | Ratio in % of Natural PABA to Stable Isotope PABA, range (chymotrypsin [1]; [4]): 0-14% | Ratio in % of Natural PABA to Stable Isotope PABA (chymotrypsin [1]; [5]): 4 ± 3% | Ratio in % of Natural PABA to Stable Isotope PABA, range (chymotrypsin [1]; [5]): 0-11% | PABA ratio in sera at 60 minutes, FIG. 1 (chymotrypsin [1]; Group B, cystic fibrosis): < 0.32 | PABA ratio in sera at 60 minutes, FIG. 1 (in words) (chymotrypsin [1]; Group C, failed to improve on pancreatic supplementary enzymes): this entire Group C is normal | Ratio in % of Natural PABA to Stable Isotope PABA, range (chymotrypsin [1]; Normals (n = 38), serum one hour): 34-200% | Ratio in % of Natural PABA to Stable Isotope PABA (chymotrypsin [1]; Normals (n = 38), serum one hour after 6.7 mg bentiromide and 2 mg [^13 C]6 -PABA): 80 ± 20% | Ratio in % of Natural PABA to Stable Isotope PABA (chymotrypsin [1]; [6]): 7 ± 6% | Ratio in % of Natural PABA to Stable Isotope PABA, range (chymotrypsin [1]; [6]): 1-16% | Ratio in % of Natural PABA to Stable Isotope PABA (chymotrypsin [1]; Partial Pancreatectomy (n = 2), individual values, serum one hour): 2% and 37% | ratio of natural PABA to PABA isotope (chymotrypsin [1]; patients with documented pancreatic insufficiency, 60-minute samples): ≤ 0.18 | Pancreatic Ratio (chymotrypsin [1]; person with steatorrhea, sixty minutes, 6.7 mg bentiromide, 2.0 mg stable isotope PABA, nl greater than 0.32): 0.06
SMILES: O=C(O)c1ccc(NC(=O)[C@H](Cc2ccc(O)cc2)NC(=O)c2ccccc2)cc1 [Bentiromide, N-benzoyl-L-tyrosyl-p-aminobenzoic acid]
plasma bentiromide test result in cystic fibrosis patients (chymotrypsin [2]): abnormally low

standard serum D-xylose testing [3]: 13 mg/dL | xylose content by CD, sera post xylose administration [3]: 3 to 52 mg/dL | concentration at 1 h (clinical; human, po): 150 µg/mL | xylose analysis, FIG. 4 (in words) (clinical): low
SMILES: O=C[C@H](O)[C@@H](O)[C@H](O)CO [xylose, D-xylose]
